{"source": "patent US7781400B2", "about": "“Pharmaceutical compositions comprising dextran with a molecular weight of 1.0-100 KDA and processes for their preparation” (BOWS Pharmaceuticals AG, priority 2006, dated 2010)", "origin": "cited, not measured here", "details": "in vivo", "data": [{"substance": "polyglycolide", "values": [{"measurement": "adverse tissue response rates", "value": "up to 47%"}]}]}
